Experimental data from patent publication US6716411B2, “Method for finding nucleotide synthesis inhibitors having fewer side effects” (Aventis Pharma Deustschland GmbH, priority 1999, dated 2004).

Test system: pemphigus vulgaris
Test: Observation of leflunomide treatment in humans
Format: in vivo
Conditions: one patient
Description: This diarrhea adversely affected the quality of life of the patient. Because of the problems caused by this side effect, an attempt was made, after more than two years' therapy with a constant dose of 20 mg of leflunomide per day, to end the therapy.
This observation was surprising, as the active metabolite of leflunomide, compound 1, has a half-life of approximately 14 days in humans. Furthermore, in this patient the blood levels of the active metabolite of leflunomide were repeatedly determined in the relatively high range between 70 mg/l and 85 mg/l.

Cc1oncc1C(=O)Nc1ccc(C(F)(F)F)cc1 [leflunomide, N-(4-trifluoromethylphenyl)-5-methylisoxazole-4-carboxamide] was tested, and the “side effect of treatment” value (20 mg of leflunomide per day) was “permanent diarrhea”, the “symptoms of pemphigus vulgaris under therapy” value (20 mg of leflunomide per day) was “completely disappeared” and the “pemphigus vulgaris four days following discontinuation” value (after more than two years' therapy) was “occurred again severely”.
